# Test results taken from paper PMC7097682, “Safety and Pharmacokinetics of CXCR4 Peptide Antagonist, LY2510924, in Combination with Durvalumab in Advanced Refractory Solid Tumors” (Journal of Pancreatic Cancer, 2020).
# Where a SMILES comes first, the peptide text is derived from it. Bridges are numbered along the chain shown (N, C = ends). [ ]: non-standard residue; d: D form. 2Nal = N[C@@H](Cc1ccc2ccccc2c1)C(=O)O; Lys(iPr) = CC(C)NCCCC[C@H](N)C(=O)O
# Legend:
# [1] = test system: pancreatic cancer model; settings: added to anti-PD-L1 monoclonal antibody regimen; cited from earlier work
# [2] = clinical; settings: human, in vivo, sc, t1/2
# Method: (§1) Blood samples were drawn from all patients for the assessment of LY2510924 in plasma and durvalumab concentrations in serum at prespecified time points. The PK of LY2510924 was assessed through intensive sampling, and the PK parameter estimates were calculated by standard noncompartmental methods of analysis. PK data for durvalumab were summarized by sampling time points, and a formal noncompartmental analysis was not conducted. Samples were analyzed using a validated liquid chromatography with tandem mass spectrometry. Summary statistics was tabulated for the PK parameters of LY2510924 and durvalumab by dose and study day.
# [3] = LY2510924 pharmacokinetics in plasma, noncompartmental analysis; settings: for AUC(0-inf) / Cmax: n = 3, geometric mean (CV%)
# Method: as §1
# [4] = test system: cancer xenograft models; settings: cell lines that express high levels of CXCR4; cited from earlier work
# [5] = test system: syngeneic squamous cell carcinoma model; settings: single agent or combination; no reference printed for the sentence; cited from earlier work
# [6] = test system: patients; set-up: method as in PMID 24727324; settings: 30 mg/day SC, monotherapy; cited from earlier work
# [7] = Durvalumab serum concentrations by sampling time point; type: in vivo, human
# Method: as §1
# [8] = human, plasma, sc, Day 15, 20 mg/day SC
# [9] = human, plasma, sc, Day 15, 30 mg/day SC
compound,measurement,setting,value
c1cc(CN2CCCNCCNCCCNCC2)ccc1CN1CCCNCCNCCCNCC1 [AMD3100],effect on T cells and antitumor efficacy of anti-PD-L1 monoclonal antibody,[1],"T cell redistribution and rapid accumulation near tumors, enhancing the antitumor efficacy"
CC(C)NCCCC[C@H](NC(=O)[C@H]1CCC(=O)N[C@@H](Cc2ccccc2)C(=O)N[C@@H](Cc2ccc(O)cc2)C(=O)N[C@@H](CCCCNC(C)C)C(=O)N[C@H](CCCNC(=N)N)C(=O)N[C@@H](Cc2ccc3ccccc3c2)C(=O)NCC(=O)N1)C(N)=O [LY2510924] (FY[Lys(iPr)][dR][2Nal]G[dE][Lys(iPr)]-NH2; lactam N-7),half-life,[2],5.11 h
same,PK variability on AUC,"[3]; 20, 30 and 40 mg daily SC",69%
same,PK variability on Cmax,"[3]; 20, 30 and 40 mg daily SC",~60%
same,mean apparent volume of distribution,"[3]; 20, 30 and 40 mg daily SC, all nine patients",59 L
same,CL/F,"[3]; human, plasma, sc, 40 mg, mean apparent clearance, 20, 30 and 40 mg daily SC, all nine patients",117 mL/min
same,AUC(0-inf),[3]; [8],1960 ng·h/mL
same,AUC(0-inf),[3]; [9],4320 ng·h/mL
same,Cmax,"[3]; human, plasma, sc, Day 1, 20 mg/day SC, with durvalumab",747 ng/mL
same,Cmax,"[3]; human, plasma, sc, Day 1, 30 mg/day SC, with durvalumab",682 ng/mL
same,Cmax,"[3]; human, plasma, sc, Day 1, 40 mg/day SC, with durvalumab",1860 ng/mL
same,Cmax,[3]; [8],367 ng/mL
same,Cmax,[3]; [9],847 ng/mL
same,Cmax,"[3]; human, plasma, sc, Day 15, 40 mg/day SC",1680 ng/mL
same,tumor growth and metastasis,[4],dose-dependent inhibition
same,antitumor activity,[5],minimal activity
same,"patients with dose-limiting toxicity (grade 3 increase in ANC >25,000 cells/μL for >5 days)",[6],two
"durvalumab: selective, high-affinity, human immunoglobulin G1 monoclonal antibody that blocks PD-L1 binding to PD-1 and CD80","peak concentration, geometric mean","[7]; week 0, 1500 mg Q4W IV infusion over 60 min, n = 8, %CV 33.2%",418 µg/mL
same,"trough concentration, geometric mean","[7]; week 4, 1500 mg Q4W IV, n = 8, %CV 50.3%",106 µg/mL
same,"trough concentration, geometric mean","[7]; week 8, 1500 mg Q4W IV, n = 4, %CV 58.4%",133 µg/mL
same,"peak concentration, geometric mean","[7]; week 12, 1500 mg Q4W IV, n = 4, %CV 30.8%",549 µg/mL
same,"trough concentration, geometric mean","[7]; week 12, 1500 mg Q4W IV, n = 4, %CV 46.8%",126 µg/mL
same,"trough concentration, geometric mean","[7]; week 20, 1500 mg Q4W IV, n = 1",74.9 µg/mL
